Assay results: patent US6867284B1, “Peptide inhibitors of hepatitis C virus NS3 protease” (Istituto di Ricerche di Biologia Molecolare P. Angeletti …, priority 1998, dated 2005)
Where two headings read alike, the source gives them in different places.

Biological target: T1, HCV NS3 protease (Hepatitis C virus genotype 1b, UniProt P26663)
T1 construct: an NS3/4A complex comprising the NS3 protease domain
Assay: Inhibition of NS3 protease (HPLC cleavage assay, NS3/4A complex with Pep4AK, substrate peptide 4AB)
Format: biochemical
Description: Buffer solutions containing 80 μM Pep4AK were preincubated for 10 minutes with 10-200 nM protease and reactions were started by addition of substrate. Six duplicate data points at different substrate concentrations were used to calculate kinetic parameters. Incubation times were chosen in order to obtain <7% substrate conversion and reactions were stopped by addition of 40 μl 1% TFA. Cleavage of peptide substrates was determined by HPLC using a Merck-Hitachi chromatograph equipped with an autosampler. 80 μl samples were injected on a Lichrospher C18 reversed phase cartridge column (4×74 mm, 5 μm, Merck) and fragments were separated using a 10-40% acetonitrile gradient a 5%/min using a flow rate of 2.5 ml/min. Peak detection was accomplished by monitoring both the absorbance at 220 nm and tyrosine fluorescence (λex=260 nm, λem=305 nm). Cleavage products were quantitated by integration of chromatograms with respect to appropriate standards. Kinetic parameters were calculated from nonlinear least-squares fit of initial rates as a function of substrate concentration with the help of a Kaleidagraph software, assuming Michaelis-Menten kinetics.
Ki values of peptide inhibitors were calculated from substrate titration experiments performed in the presence of increasing amounts of inhibitor. Experimental data sets were simultaneously fitted to eq.1 using a multicurve fit macro with the help of a Sigmaplot software: V=(VmaxS)/(Km(1+[…])+S); (eq.1)
Alternatively, Ki values were derived from IC50 values, calculated using a four-parameter logistic function, according to eq.2: IC50−(1+S/Km)Ki (eq.2)

[1] = Table 3 capped dipeptide keto acids, read-out: IC50
[2] = Table 4 indoline keto acids and related, read-out: IC50
[3] = Table 1 hexapeptides, cells printed in nM, read-out: IC50

T1 sequence (P26663 1027-1208, other chains not shown): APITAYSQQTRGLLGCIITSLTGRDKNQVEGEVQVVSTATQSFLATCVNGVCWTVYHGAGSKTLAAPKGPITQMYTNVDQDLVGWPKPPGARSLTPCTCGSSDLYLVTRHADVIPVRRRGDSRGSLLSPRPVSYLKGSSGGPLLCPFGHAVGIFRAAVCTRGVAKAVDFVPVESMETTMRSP

SMILES	IC50 [1]	IC50 [2]	further results
CCCC(CCC)C(=O)N[C@@H](CC(C)C)C(=O)NC(CC(F)F)C(=O)C(=O)O (mixture of isomers) [Compound 7c]	78 µM		
CC(C)C[C@H](NC(=O)CCCC(=O)O)C(=O)NC(CC(F)F)C(=O)C(=O)O (mixture of isomers) [Compound 7d]	6 µM		
CC(C)C[C@H](NC(=O)CC(C)(C)CC(=O)O)C(=O)NC(CC(F)F)C(=O)C(=O)O (mixture of isomers) [Compound 7e]	4 µM		
CC(C)C[C@H](NC(=O)COCC(=O)O)C(=O)NC(CC(F)F)C(=O)C(=O)O (mixture of isomers) [Compound 7h]	32 µM		
CC(C)C[C@H](NC(=O)CC(CC(=O)O)c1ccccc1)C(=O)NC(CC(F)F)C(=O)C(=O)O (mixture of isomers) [Compound 7j]			IC50: 26 µM
CC(C)C[C@H](NC(=O)CC(CC(=O)O)c1ccc(Cl)cc1)C(=O)NC(CC(F)F)C(=O)C(=O)O (mixture of isomers) [Compound 7k]	35 µM		
COC(=O)CC1(CC(=O)N[C@@H](CC(C)C)C(=O)NC(CC(F)F)C(=O)C(=O)O)CCCC1 (mixture of isomers) [Compound 7m]	85 µM		
CC(C)C[C@H](NC(=O)CC1(CC(=O)NS(=O)(=O)c2ccccc2)CCCC1)C(=O)NC(CC(F)F)C(=O)C(=O)O (mixture of isomers) [Compound 7n]	7 µM		
CC(C)C[C@H](NC(=O)C1(CCC(=O)O)CCCC1)C(=O)NC(CC(F)F)C(=O)C(=O)O (mixture of isomers) [Compound 7o]	22 µM		
CC(C)C[C@H](NC(=O)CC1(CC(=O)O)CCCCC1)C(=O)NC(CC(F)F)C(=O)C(=O)O (mixture of isomers) [Compound 7q]	2 µM		
CC(C)C[C@H](NC(=O)Cc1cccc(CC(=O)O)c1)C(=O)NC(CC(F)F)C(=O)C(=O)O (mixture of isomers) [Compound 8c]	7 µM		
CC(C)C[C@H](NC(=O)Cc1ccc(CC(=O)O)cc1)C(=O)NC(CC(F)F)C(=O)C(=O)O (mixture of isomers) [Compound 8d]	7 µM		
CC(C)C[C@H](NC(=O)C(Sc1ccccc1)c1ccccc1)C(=O)NC(CC(F)F)C(=O)C(=O)O (mixture of isomers) [Compound 8i]	28 µM		
CC(C)C[C@H](NC(=O)C(Cc1ccccc1)c1ccccc1)C(=O)NC(CC(F)F)C(=O)C(=O)O (mixture of isomers) [Compound 8j]	100 µM		
COc1ccc(C(Oc2ccccc2)C(=O)N[C@@H](CC(C)C)C(=O)NC(CC(F)F)C(=O)C(=O)O)cc1 (mixture of isomers) [Compound 8k]	72 µM		
CC(C)C[C@H](NC(=O)[C@H](O)C1CCCCC1)C(=O)NC(CC(F)F)C(=O)C(=O)O (mixture of isomers) [Compound 8l]	14 µM		
CC(C)C[C@H](NC(=O)C1OC(=O)CC12CCCC2)C(=O)NC(CC(F)F)C(=O)C(=O)O (mixture of isomers) [Compound 8m]	60 µM		
CC(C)C[C@H](NC(=O)[C@H](O)c1ccccc1)C(=O)NC(CC(F)F)C(=O)C(=O)O (mixture of isomers) [Compound 8n]	6 µM		
CC(C)C[C@H](NC(=O)[C@H](O)c1ccc(C(F)(F)F)cc1)C(=O)NC(CC(F)F)C(=O)C(=O)O (mixture of isomers) [Compound 8o]	56 µM		
COc1ccc([C@@H](O)C(=O)N[C@@H](CC(C)C)C(=O)NC(CC(F)F)C(=O)C(=O)O)cc1 (mixture of isomers) [Compound 8p]	25 µM		
CC(C)C[C@H](NC(=O)[C@H](O)c1ccc(Cl)cc1)C(=O)NC(CC(F)F)C(=O)C(=O)O (mixture of isomers) [Compound 8q]	25 µM		
CC(C)C[C@H](NC(=O)[C@H](O)c1ccccc1Cl)C(=O)NC(CC(F)F)C(=O)C(=O)O (mixture of isomers) [Compound 8r]	82 µM		
CCCCC1(C(=O)NC(CC(C)C)C(=O)NC(CC(F)F)C(=O)C(=O)O)Cc2ccccc2N1 (mixture of isomers) [Compound 9b]		87 µM	
CC(C)C[C@H](NC(=O)C1(C(C)C)Cc2ccccc2N1)C(=O)NC(CC(F)F)C(=O)C(=O)O (mixture of isomers) [Compound 9c]		92 µM	

SMILES	IC50 [1]	IC50 [2]	further results
CC(C)C[C@H](NC(=O)C1(CC(C)C)Cc2ccccc2N1)C(=O)NC(CC(F)F)C(=O)C(=O)O (mixture of isomers) [Compound 9d]		16 µM	
CC(C)=CCC1(C(=O)NC(CC(C)C)C(=O)NC(CC(F)F)C(=O)C(=O)O)Cc2ccccc2N1 (mixture of isomers) [Compound 9e]		69 µM	
CC(C)CCC1(C(=O)N[C@@H](CC(C)C)C(=O)NC(CC(F)F)C(=O)C(=O)O)Cc2ccccc2N1 (mixture of isomers) [Compound 9f]		120 µM	
CCC(C)CC1(C(=O)N[C@@H](CC(C)C)C(=O)NC(CC(F)F)C(=O)C(=O)O)Cc2ccccc2N1 (mixture of isomers) [Compound 9h]		81 µM	
CC(C)C[C@H](NC(=O)C1(CC2CCC2)Cc2ccccc2N1)C(=O)NC(CC(F)F)C(=O)C(=O)O (mixture of isomers) [Compound 9j]		34 µM	
CC(C)C[C@H](NC(=O)C1(C2CCCCC2)Cc2ccccc2N1)C(=O)NC(CC(F)F)C(=O)C(=O)O (mixture of isomers) [Compound 9k]		69 µM	
CC(C)C[C@H](NC(=O)C1(CC2CCCCC2)Cc2ccccc2N1)C(=O)NC(CC(F)F)C(=O)C(=O)O (mixture of isomers) [Compound 9l]		31 µM	
COCCOCC1(C(=O)N[C@@H](CC(C)C)C(=O)NC(CC(F)F)C(=O)C(=O)O)Cc2ccccc2N1 (mixture of isomers) [Compound 9m]		57 µM	
CC(C)C[C@H](NC(=O)C1(CC(=O)O)Cc2ccccc2N1)C(=O)NC(CC(F)F)C(=O)C(=O)O (mixture of isomers) [Compound 9n]		81 µM	
CC(C)C[C@H](NC(=O)C1(Cc2ccccc2)Cc2ccccc2N1)C(=O)NC(CC(F)F)C(=O)C(=O)O (mixture of isomers) [Compound 9o]		45 µM	
CC(C)C[C@H](NC(=O)C1(C(C)c2ccccc2)Cc2ccccc2N1)C(=O)NC(CC(F)F)C(=O)C(=O)O (mixture of isomers) [Compound 9p]		88 µM	
CC(C)C[C@H](NC(=O)C1(Cc2cccc(Br)c2)Cc2ccccc2N1)C(=O)NC(CC(F)F)C(=O)C(=O)O (mixture of isomers) [Compound 9r]		100 µM	
COc1cccc(CC2(C(=O)N[C@@H](CC(C)C)C(=O)NC(CC(F)F)C(=O)C(=O)O)Cc3ccccc3N2)c1 (mixture of isomers) [Compound 9s]		38 µM	
CC(C)CC(NC(=O)C1(Cc2cccc(C#N)c2)Cc2ccccc2N1)C(=O)NC(CC(F)F)C(=O)C(=O)O (mixture of isomers) [Compound 9t]		9 µM	
CC(C)C[C@H](NC(=O)C1(Cc2cccc(Oc3ccccc3)c2)Cc2ccccc2N1)C(=O)NC(CC(F)F)C(=O)C(=O)O (mixture of isomers) [Compound 9v]		24 µM	
CC(C)C[C@H](NC(=O)C1(Cc2ccc(Cl)s2)Cc2ccccc2N1)C(=O)NC(CC(F)F)C(=O)C(=O)O (mixture of isomers) [Compound 9w]		3 µM	
CC(C)C[C@H](NC(=O)C1(CC(C)C)Cc2ccc(Oc3ccccc3)cc2N1)C(=O)NC(CC(F)F)C(=O)C(=O)O (mixture of isomers) [Compound 10c]		100 µM	
CC(C)C[C@H](NC(=O)C1Cc2ccc(OCC3CC3)cc2N1)C(=O)NC(CC(F)F)C(=O)C(=O)O (mixture of isomers) [Compound 10d]		66 µM	
CC(C)C[C@H](NC(=O)C1Cc2ccc(OC3CCOC3)cc2N1)C(=O)NC(CC(F)F)C(=O)C(=O)O (mixture of isomers) [Compound 10g]		23 µM	
CC(C)C[C@H](NC(=O)C1Cc2ccc(OCC3CCOC3)cc2N1)C(=O)NC(CC(F)F)C(=O)C(=O)O (mixture of isomers) [Compound 10h]		16 µM	
CC(C)C[C@H](NC(=O)C1(CC(C)C)CCC(=O)N1)C(=O)NC(CC(F)F)C(=O)C(=O)O (mixture of isomers) [Compound 11]		43 µM	
CC(=O)N[C@@H](CC(=O)O)C(=O)N[C@@H](CCC(=O)O)C(=O)N[C@H](C(=O)N[C@@H](CCC(=O)O)C(=O)N[C@@H](CC1CCCCC1)C(=O)NC(CC(F)F)C(=O)O)C(c1ccccc1)c1ccccc1 (single isomer, unassigned) [Compound 1b (D)]			IC50 (Table 1 hexapeptides, cells printed in μM, read-out: IC50): 1 µM
CC(=O)N[C@@H](CC(=O)O)C(=O)N[C@@H](CCC(=O)O)C(=O)N[C@H](C(=O)N[C@@H](CCC(=O)O)C(=O)N[C@@H](CC1CCCCC1)C(=O)NC(CC(F)F)C(=O)O)C(c1ccccc1)c1ccccc1 (single isomer, unassigned) [Compound 1b (L)]			IC50 [3]: 0.02 µM
CC(=O)N[C@@H](CC(=O)O)C(=O)N[C@@H](CCC(=O)O)C(=O)N[C@H](C(=O)N[C@@H](CCC(=O)O)C(=O)N[C@@H](CC1CCCCC1)C(=O)NC(C=O)CC(F)F)C(c1ccccc1)c1ccccc1 (single isomer, unassigned) [Compound 1c (D)]			IC50 [3]: 0.043 µM
